In patent US10501460B2, “Heterocyclic compounds and uses thereof” (Plexxikon Inc., priority 2013, dated 2019):
pIC50: −log10 of the molar value.

Tests used:
MV-4-11 = assay: Oncology cell growth assay MV-4-11 (CellTiter Glo, 72 hours); format: cell-based; conditions: Homo sapiens, MV4-11, 72 h; MV-4-11 cell growth inhibitory activity, 3d
Outline: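 MV-4-11 cells (MLL-AF4 AML) exposed 72 h to 8-point 1:3 titration, top final 10 μM, 0.2% DMSO. CellTiter Glo luminescence as cell-number readout, normalized to DMSO controls; pIC50 from four-parameter fit.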

bromodomain = assay: Bromodomain cell assays of Example 40 (at least one of them); format: cell-based; conditions: in at least one of the bromodomain cell assays described in Example 40
Outline: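 Growth inhibition: 3000 MV-4-11, MOLM-13, MM.1S or neuroblastoma cells/well got an 8-point 1:3 series from 10 μM top (0.2% DMSO) for 72 h, then CellTiter-Glo luminescence. Myc reporter: MV-4-11 with E-box firefly luciferase, 24 h exposure, One-Glo luminescence plus CellTiter-Fluo cell count. pIC50 from four-parameter fit.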

| IC50 (MV-4-11) | pIC50 (bromodomain) | SMILES |
| --- | --- | --- |
| 1 to 10 µM | > 5.00 | Cc1noc(C)c1-c1cnc2c(CC3CC3)cn(S(=O)(=O)C3CCCCC3)c2c1 [P-0075, 4-[1-cyclohexylsulfonyl-3-(cyclopropylmethyl)pyrrolo [3,2-b]pyridin-6-yl]-3,5-dimethyl-isoxazole] |
| ≤ 1 µM | > 5.00 | Cc1noc(C)c1-c1cnc2[nH]c(C)c(C(O)c3cccnc3)c2c1 (centres unmarked) [P-0009, [5-(3,5-dimethylisoxazol-4-yl)-2-methyl-1H-pyrrolo[2,3-b]pyridin-3-yl]-(3-pyridyl)methanol] |
| ≤ 1 µM | > 5.00 | C=CCn1cc(-c2cn(S(=O)(=O)CCC)c3cc(-c4c(C)noc4C)cnc23)cn1 [P-0137, 4-[3-(1-allylpyrazol-4-yl)-1-propylsulfonyl-pyrrolo[3,2-b]pyridin-6-yl]-3,5-dimethyl-isoxazole] |
| ≤ 1 µM | > 5.00 | Cc1noc(C)c1-c1cnc2c(-c3cnn(C)c3)cn(CC3CC(F)(F)C3)c2c1 [P-0213, 4-[1-[(3,3-difluorocyclobutyl)methyl]-3-(1-methylpyrazol-4-yl)pyrrolo[3,2-b]pyridin-6-yl]-3,5-dimethyl-isoxazole] |
| ≤ 1 µM | > 5.00 | CCn1cc(-c2cn(C(C)c3ccccc3)c3cc(-c4c(C)noc4C)cnc23)cn1 (centres unmarked) [P-0200, 4-[3-(1-ethylpyrazol-4-yl)-1-(1-phenylethyl)pyrrolo[3,2-b]pyridin-6-yl]-3,5-dimethyl-isoxazole] |
| ≤ 1 µM | > 5.00 | CCc1[nH]c2ncc(-c3c(C)noc3C)cc2c1C(O)C1CCC(F)(F)CC1 (centres unmarked) [P-0044, (4,4-difluorocyclohexyl)-[5-(3,5-dimethylisoxazol-4-yl)-2-ethyl-1H-pyrrolo[2,3-b]pyridin-3-yl]methanol] |
| ≤ 1 µM | > 5.00 | [2H]C([2H])(O)C(c1ccccc1)n1cc(-c2cnn(C)c2)c2ncc(-c3c(C)noc3C)cc21 (centres unmarked) [P-0218, 1,1-dideuterio-2-[6-(3,5-dimethylisoxazol-4-yl)-3-(1-methylpyrazol-4-yl)pyrrolo[3,2-b]pyridin-1-yl]-2-phenyl-ethanol] |
| 1 to 10 µM | > 5.00 | Cc1noc(C)c1-c1cnc2[nH]cc(C(c3ccc(F)cc3)(C3CC3)C3CC3)c2c1 [P-0085, 4-[3-[dicyclopropyl-(4-fluorophenyl)methyl]-1H-pyrrolo[2,3-b]pyridin-5-yl]-3,5-dimethyl-isoxazole] |
| ≤ 1 µM | > 5.00 | CCc1[nH]c2ncc(-c3c(C)noc3C)cc2c1C(OC)C1CCC(F)(F)CC1 (centres unmarked) [P-0045, 4-[3-[(4,4-difluorocyclohexyl)-methoxy-methyl]-2-ethyl-1H-pyrrolo[2,3-b]pyridin-5-yl]-3,5-dimethyl-isoxazole] |
| ≤ 1 µM | > 5.00 | Cc1noc(C)c1-c1cnc2[nH]c(C)c(Cc3cccnc3)c2c1 [P-0005, 3,5-dimethyl-4-[2-methyl-3-(3-pyridylmethyl)-1H-pyrrolo[2,3-b]pyridin-5-yl]isoxazole] |
| 1 to 10 µM | > 5.00 | Cc1noc(C)c1-c1cnc2[nH]cc([S+]([O-])c3cccc(F)c3)c2c1 (centres unmarked) [P-0142, 4-[3-(3-fluorophenyl)sulfinyl-1H-pyrrolo[2,3-b]pyridin-5-yl]-3,5-dimethyl-isoxazole] |
| ≤ 1 µM | > 5.00 | Cc1noc(C)c1-c1cnc2c(-c3cn[nH]c3)cn(S(=O)(=O)c3ccccc3)c2c1 [P-0163, 4-[1-(benzenesulfonyl)-3-(1H-pyrazol-4-yl)pyrrolo[3,2-b]pyridin-6-yl]-3,5-dimethyl-isoxazole] |
| ≤ 1 µM | > 5.00 | Cc1noc(C)c1-c1cnc2ccn(S(=O)(=O)C3CCCCC3)c2c1 [P-0066, 4-(1-cyclohexylsulfonylpyrrolo [3,2-b]pyridin-6-yl)-3,5-dimethyl-isoxazole] |
| ≤ 1 µM | > 5.00 | Cc1noc(C)c1-c1cnc2c(-c3cnn(C)c3)cn(Cc3ccccn3)c2c1 [P-0198, 3,5-dimethyl-4-[3-(1-methylpyrazol-4-yl)-1-(2-pyridylmethyl)pyrrolo[3,2-b]pyridin-6-yl]isoxazole] |
| 1 to 10 µM | > 5.00 | COC(c1c[nH]c2ncc(-c3c(C)noc3C)cc12)C1CCS(=O)(=O)CC1 (centres unmarked) [P-0089, 4-[[5-(3,5-dimethylisoxazol-4-yl)-1H-pyrrolo[2,3-b]pyridin-3-yl]-methoxy-methyl]thiane 1,1-dioxide] |
| ≤ 1 µM | > 5.00 | Cc1noc(C)c1-c1cnc2c(-c3cnn(C)c3)cn([C@H](C)c3ccccc3)c2c1 [P-0223, 3,5-dimethyl-4-[3-(1-methylpyrazol-4-yl)-1-[(1R)-1-phenylethyl]pyrrolo[3,2-b]pyridin-6-yl]isoxazole] |
| ≤ 1 µM | > 5.00 | Cc1noc(C)c1-c1cnc2c(I)cn(C(C)c3ccccc3)c2c1 (centres unmarked) [P-0224, 4-[3-iodo-1-(1-phenylethyl)pyrrolo[3,2-b]pyridin-6-yl]-3,5-dimethyl-isoxazole] |
| ≤ 1 µM | > 5.00 | Cc1noc(C)c1-c1cnc2[nH]c(-c3ccc(F)cc3)c(Cc3cccnc3)c2c1 [P-0007, 4-[2-(4-fluorophenyl)-3-(3-pyridylmethyl)-1H-pyrrolo[2,3-b]pyridin-5-yl]-3,5-dimethyl-isoxazole] |
| ≤ 1 µM | > 5.00 | CCCS(=O)(=O)n1cc(-c2cnn(C(F)F)c2)c2ncc(-c3c(C)noc3C)cc21 [P-0135, 4-[3-[1-(difluoromethyl)pyrazol-4-yl]-1-propylsulfonyl-pyrrolo [3,2-b]pyridin-6-yl]-3,5-dimethyl-isoxazole] |
| ≤ 1 µM | > 5.00 | C=CCn1cc(-c2cn(C(C)c3ccccc3)c3cc(-c4c(C)noc4C)cnc23)cn1 (centres unmarked) [P-0201, 4-[3-(1-allylpyrazol-4-yl)-1-(1-phenylethyl)pyrrolo[3,2-b]pyridin-6-yl]-3,5-dimethyl-isoxazole] |
| ≤ 1 µM | > 5.00 | Cc1noc(C)c1-c1cnc2c(C#CCO)cn(S(=O)(=O)C3CCCC3)c2c1 [P-0156, 3-[1-cyclopentylsulfonyl-6-(3,5-dimethylisoxazol-4-yl)pyrrolo[3,2-b]pyridin-3-yl]prop-2-yn-1-ol] |
| ≤ 1 µM | > 5.00 | Cc1noc(C)c1-c1cnc2c(-c3cnn(C)c3)cn(Cc3c(Cl)cccc3Cl)c2c1 [P-0189, 4-[1-[(2,6-dichlorophenyl)methyl]-3-(1-methylpyrazol-4-yl)pyrrolo[3,2-b]pyridin-6-yl]-3,5-dimethyl-isoxazole] |
| ≤ 1 µM | > 5.00 | Cc1noc(C)c1-c1cnc2[nH]cc(Cc3cccnc3)c2c1 [P-0003, 3,5-dimethyl-4-[3-(3-pyridylmethyl)-1H-pyrrolo[2,3-b]pyridin-5-yl]isoxazole] |
| 1 to 10 µM | > 5.00 | Cc1noc(C)c1-c1cnc2c(c1)c(CC1CCN(S(=O)(=O)c3ccccc3)CC1)cn2C [P-0113, 4-[3-[[1-(benzenesulfonyl)-4-piperidyl]methyl]-1-methyl-pyrrolo[2,3-b]pyridin-5-yl]-3,5-dimethyl-isoxazole] |
| 1 to 10 µM | > 5.00 | Cc1noc(C)c1-c1cnc2c(-c3cnc(C4CC4)nc3)cn(S(=O)(=O)C3CCCC3)c2c1 [P-0103, 4-[1-cyclopentylsulfonyl-3-(2-cyclopropylpyrimidin-5-yl)pyrrolo[3,2-b]pyridin-6-yl]-3,5-dimethyl-isoxazole] |
